Test results: PubChem BioAssay AID2060623 (Molecular Pharmacology Branch, DTP, NCI, 2025)

Tested on: 227483-062-R1-J1-PDC complex spheroids with HUVEC/MSC, viability
Test: Anticancer human tumor 227483-062-R1-J1-PDC patient-derived pancreatic carcinoma cell line growth inhibition [CLK]
Details: for IC50: curve of first compound; for viability, T/C: stronger effect = lower value
How it was run: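 Patient-derived tumor cells grown as complex spheroids with HUVEC endothelial cells and mesenchymal stem cells, treated with drug combinations. Concentrations descend in half-log steps from near clinical Cmax, or from 10 microM if Cmax unknown.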

[1] = second compound 0.0316 µM, first compound 0.0316 µM
[2] = second compound 0.0316 µM, first compound 0.1 µM
[3] = second compound 0.0316 µM, first compound 0.316 µM
[4] = second compound 0.0316 µM, first compound 1 µM
[5] = second compound 0.0316 µM, first compound 3.16 µM
[6] = second compound 0.0316 µM, first compound 10 µM
[7] = second compound 0.1 µM, first compound 0.0316 µM
[8] = second compound 0.1 µM, first compound 0.1 µM
[9] = second compound 0.1 µM, first compound 0.316 µM
[10] = second compound 0.1 µM, first compound 1 µM
[11] = second compound 0.1 µM, first compound 3.16 µM
[12] = second compound 0.1 µM, first compound 10 µM
[13] = second compound 0.316 µM, first compound 0.0316 µM
[14] = second compound 0.316 µM, first compound 0.1 µM
[15] = second compound 0.316 µM, first compound 0.316 µM
[16] = second compound 0.316 µM, first compound 1 µM
[17] = second compound 0.316 µM, first compound 3.16 µM
[18] = second compound 0.316 µM, first compound 10 µM
[19] = second compound 1 µM, first compound 0.0316 µM
[20] = second compound 1 µM, first compound 0.1 µM
[21] = second compound 1 µM, first compound 0.316 µM
[22] = second compound 1 µM, first compound 1 µM
[23] = second compound 1 µM, first compound 3.16 µM
[24] = second compound 1 µM, first compound 10 µM
[25] = second compound 3.16 µM, first compound 0.0316 µM
[26] = second compound 3.16 µM, first compound 0.1 µM
[27] = second compound 3.16 µM, first compound 0.316 µM
[28] = second compound 3.16 µM, first compound 1 µM
[29] = second compound 3.16 µM, first compound 3.16 µM
[30] = second compound 3.16 µM, first compound 10 µM
[31] = second compound 10 µM, first compound 0.0316 µM
[32] = second compound 10 µM, first compound 0.1 µM
[33] = second compound 10 µM, first compound 0.316 µM
[34] = second compound 10 µM, first compound 1 µM
[35] = second compound 10 µM, first compound 3.16 µM
[36] = second compound 10 µM, first compound 10 µM
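Note: spheroids exposed to compounds for seven days before readout.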
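Throughout, for viability, T/C: percent of DMSO vehicle control luminescence as 100% viability.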

Compound: CC(=O)O[C@H]1C(=O)[C@@]2(C)[C@H]([C@H](OC(=O)c3ccccc3)[C@]3(O)C[C@H](OC(=O)[C@H](O)[C@@H](NC(=O)c4ccccc4)c4ccccc4)C(C)=C1C3(C)C)[C@]1(OC(C)=O)CO[C@@H]1C[C@@H]2O + CNC(=O)c1ccc(Nc2nc(OC3CCCC3)c3c(-c4ccc5nc(C)oc5c4)c[nH]c3n2)c(OC)c1
- IC50 (second compound 0.0316 µM): < 31.6 nM
- IC50 (second compound 0.1 µM): > 10000 nM
- IC50 (second compound 0.316 µM): > 10000 nM
- IC50 (second compound 1 µM): > 10000 nM
- IC50 (second compound 3.16 µM): < 31.6 nM
- IC50 (second compound 10 µM): < 31.6 nM
- viability, T/C [1]: 29.7%
- viability, T/C [2]: 27.1%
- viability, T/C [3]: 35.6%
- viability, T/C [4]: 43.4%
- viability, T/C [5]: 48.3%
- viability, T/C [6]: 75.9%
- viability, T/C [7]: 53.8%
- viability, T/C [8]: 62.1%
- viability, T/C [9]: 71.1%
- viability, T/C [10]: 85.1%
- viability, T/C [11]: 77.1%
- viability, T/C [12]: 101%
- viability, T/C [13]: 70.4%
- viability, T/C [14]: 95.6%
- viability, T/C [15]: 98.9%
- viability, T/C [16]: 101%
- viability, T/C [17]: 99.3%
- viability, T/C [18]: 95.8%
- viability, T/C [19]: 60.8%
- viability, T/C [20]: 69.2%
- viability, T/C [21]: 72.7%
- viability, T/C [22]: 101%
- viability, T/C [23]: 96.7%
- viability, T/C [24]: 89.4%
- viability, T/C [25]: 46.7%
- viability, T/C [26]: 58.9%
- viability, T/C [27]: 62.9%
- viability, T/C [28]: 61.5%
- viability, T/C [29]: 70.1%
- viability, T/C [30]: 54.6%
- viability, T/C [31]: 37.9%
- viability, T/C [32]: 49.9%
- viability, T/C [33]: 50.3%
- viability, T/C [34]: 61.4%
- viability, T/C [35]: 49.5%
- viability, T/C [36]: 55.5%

Compound: CCc1c2c(nc3ccc(O)cc13)-c1cc3c(c(=O)n1C2)COC(=O)[C@]3(O)CC + CNC(=O)c1ccc(Nc2nc(OC3CCCC3)c3c(-c4ccc5nc(C)oc5c4)c[nH]c3n2)c(OC)c1
- IC50 (second compound 0.0316 µM): 205 nM
- IC50 (second compound 0.1 µM): 176 nM
- IC50 (second compound 0.316 µM): 64 nM
- IC50 (second compound 1 µM): 11.4 nM
- IC50 (second compound 3.16 µM): < 3.16 nM
- IC50 (second compound 10 µM): < 3.16 nM
- viability, T/C (second compound 0.0316 µM, first compound 0.00316 µM): 121%
- viability, T/C (second compound 0.0316 µM, first compound 0.01 µM): 96.1%
- viability, T/C [1]: 81.2%
- viability, T/C [2]: 60.5%
- viability, T/C [3]: 41.5%
- viability, T/C [4]: 32.5%
- viability, T/C (second compound 0.1 µM, first compound 0.00316 µM): 111%
- viability, T/C (second compound 0.1 µM, first compound 0.01 µM): 97.1%
- viability, T/C [7]: 69.3%
- viability, T/C [8]: 64.4%
- viability, T/C [9]: 42.1%
- viability, T/C [10]: 19.8%
- viability, T/C (second compound 0.316 µM, first compound 0.00316 µM): 65.2%
- viability, T/C (second compound 0.316 µM, first compound 0.01 µM): 84.3%
- viability, T/C [13]: 62.2%
- viability, T/C [14]: 37.8%
- viability, T/C [15]: 24.1%
- viability, T/C [16]: 5.82%
- viability, T/C (second compound 1 µM, first compound 0.00316 µM): 61.2%
- viability, T/C (second compound 1 µM, first compound 0.01 µM): 54%
- viability, T/C [19]: 34.1%
- viability, T/C [20]: 19.4%
- viability, T/C [21]: 10.4%
- viability, T/C [22]: 1.96%
- viability, T/C (second compound 3.16 µM, first compound 0.00316 µM): 44%
- viability, T/C (second compound 3.16 µM, first compound 0.01 µM): 35.2%
- viability, T/C [25]: 24.2%
- viability, T/C [26]: 12.6%
- viability, T/C [27]: 7.58%
- viability, T/C [28]: 2.02%
- viability, T/C (second compound 10 µM, first compound 0.00316 µM): 33.4%
- viability, T/C (second compound 10 µM, first compound 0.01 µM): 32.4%
- viability, T/C [31]: 17.1%
- viability, T/C [32]: 11.4%
- viability, T/C [33]: 6.34%
- viability, T/C [34]: 2.19%

Compound: O=c1[nH]cc(F)c(=O)[nH]1 + CNC(=O)c1ccc(Nc2nc(OC3CCCC3)c3c(-c4ccc5nc(C)oc5c4)c[nH]c3n2)c(OC)c1
- IC50 (second compound 0.0316 µM): 1740 nM
- IC50 (second compound 0.1 µM): 1020 nM
- IC50 (second compound 0.316 µM): 931 nM
- IC50 (second compound 1 µM): 320 nM
- IC50 (second compound 3.16 µM): < 31.6 nM
- IC50 (second compound 10 µM): < 31.6 nM
- viability, T/C [1]: 94.6%
- viability, T/C [2]: 88.3%
- viability, T/C [3]: 108%
- viability, T/C [4]: 62.9%
- viability, T/C [5]: 41%
- viability, T/C [6]: 31.2%
- viability, T/C [7]: 104%
- viability, T/C [8]: 93.8%
- viability, T/C [9]: 73.8%
- viability, T/C [10]: 50.1%
- viability, T/C [11]: 38.4%
- viability, T/C [12]: 36%
- viability, T/C [13]: 71.4%
- viability, T/C [14]: 91.7%
- viability, T/C [15]: 66.5%
- viability, T/C [16]: 47.5%
- viability, T/C [17]: 37.1%
- viability, T/C [18]: 24.5%
- viability, T/C [19]: 80.6%
- viability, T/C [20]: 56.2%
- viability, T/C [21]: 60.5%
- viability, T/C [22]: 32.5%
- viability, T/C [23]: 22.4%
- viability, T/C [24]: 18.7%
- viability, T/C [25]: 46.7%
- viability, T/C [26]: 46.9%
- viability, T/C [27]: 41.2%
- viability, T/C [28]: 26.4%
- viability, T/C [29]: 18.1%
- viability, T/C [30]: 13.8%
- viability, T/C [31]: 44.8%
- viability, T/C [32]: 39%
- viability, T/C [33]: 33.1%
- viability, T/C [34]: 23.5%
- viability, T/C [35]: 18.9%
- viability, T/C [36]: 14.6%
